Source: patent publication US20220354845A1, “METHODS FOR ENHANCING DNA DAMAGE AND APOPTOSIS OF LEUKEMIC CELLS” (Thomas Jefferson University, priority 2019, published 2022)

Legend:
THP-1 cells [1] = assay: DNA damage by γ-H2A.X foci and western blot in THP-1 cells; assay type: cell-based, human; conditions: for number of γ-H2A.X foci compared to untreated cells: single agent, Bleomycin 5 μM, Doxorubicin 0.1 μM, Etoposide 0.1 μM
Method: DNA damage evaluation by analysis of γ-H2A.X foci. […] Lower panels show γ-H2A.X signals only. […] In FIG. 6C, DNA damage was assessed by γ-H2A.X western blot in drug-treated THP-1 cell extracts.
(§1) FIG. 10B is a series of images showing immunofluorescence microscopy of γ-H2A.X foci in untreated or drug-treated (Doxorubicin 0.1 μM, palbociclib 500 nM) THP-1 cells. γ-H2A.X light gray, DAPI dark gray. In FIG. 10C, apoptosis was analyzed by Caspase 3/7 activity by flow cytometry.
The role of chromatin structure in cytotoxic agent-induced DNA damage was also assessed by investigating the formation of γ-H2A.X foci by confocal microscopy.

[2] = tested on: Y641 and A677 mutants of EZH2; conditions: cited from earlier work
THP-1 cells [3] = assay: Apoptosis by Caspase-3/7 activity (flow cytometry) in THP-1 cells; assay type: cell-based, human
Method: (§2) FIGS. 9A-9B illustrate apoptosis of drug-treated cells. THP-1 (FIG. 9A) and primary CD34+ AML samples (FIG. 9B) were left untreated (CNTR), treated with Doxorubicin alone (0.1 μM), Etoposide alone (0.5 μM) or in combination with the EZH2 inhibitor GSK-126 (0.5 μM) for 48 hours. Apoptosis was analyzed by Caspase-3/7 activity by flow cytometry.
as §1, with “FIGS. 10A-10C illustrate that treatment with the CDK4/CDK6 inhibitor palbociclib suppresses Doxorubicin-induced DNA damage. […] FIG. 10B” for “FIG. 10B”
THP-1 cells were treated with Palbociclib (500 nM) for 24 hours to induce a G1-arrest. […] Anova ***p<0.001; (Right) Apoptosis analyzed by Caspase 3/7 activity by flow cytometry. Mean+/−SEM. Anova; *p<0.1 **p<0.01
To assess whether cell cycle synchronization through pre-conditioning with a CDK4/6 inhibitor prior to treatment, a subsequent study was performed in which THP-1 cells were treated with Palbociclib (500 nM) for 24 hours to induce a G1-arrest. […] (FIG. 15, Right) Apoptosis of treated cells was also analyzed by Caspase 3/7 activity by flow cytometry.

THP-1 cells [4] = assay: Comet assay in drug-treated THP-1 cells; assay type: cell-based, human; conditions: co-treatment with GSK126 and Doxorubicin
THP-1 cells [5] = assay: RAD51 foci formation in Doxorubicin-treated THP-1 cells; assay type: cell-based, human; conditions: GSK126 5 μM, Doxorubicin 0.1 μM; 12, 24, 36, 72 hrs
Text: FIG. 7 illustrates the kinetics of RAD51 foci formation in Doxorubicin-treated THP-1 cells. […] RAD51 foci were detected by immunofluorescence in the pre-washed cultures (12 hrs), and at 24, 36, and 72 hrs post Doxorubicin washing.

primary CD34+ AML cells = assay: γ-H2A.X foci and comet assay in primary CD34+ AML cells; assay type: cell-based, human; conditions: co-treated with GSK126 (5 μM) and Doxorubicin (0.3 or 0.1 μM), 24 h
Text: FIGS. 8A-8D illustrate that inhibition of EZH2 enhances DNA damage as assessed by γ-H2A.X foci and comet assay in primary CD34+ AML cells. […] Immunofluorescence microscopy of γ-H2A.X foci (representative cells). γ-H2A.X light gray, DAPI, dark gray. Lower panels show γ-H2A.X signals only. […] Immunofluorescence microscopy of γ-H2A.X foci (representative cells). γ-H2A.X light gray, DAPI, dark gray. Lower panels show γ-H2A.X signals only.

[6] = tested on: primary ASXL1-mutated AML sample; assay: γ-H2A.X foci in primary ASXL1-mutated AML sample; assay type: cell-based, human; conditions: CD34+ cells with frameshift ASXL1 mutation (G646fs*12); co-treatment with GSK126 (5 nM), 24 hours
Method: FIGS. 13A-13B illustrate accumulation of H3K27me3 on nascent DNA of a human primary ASXL1 mutated AML sample. In FIG. 13A, DNA was labeled with EdU for 15 minutes. Following conjugation with biotin, CAA was performed between nascent DNA (biotin) and H3K27me3. PLA (bright gray), Edu (biotin; light gray), DAPI; dark gray). Lower panels show PLA signals only. […] DNA Damage evaluation by analysis of γ-H2A.X foci. […] Immunofluorescence microscopy of γ-H2A.X foci (representative cells). γ-H2A.X light gray, DAPI, dark gray. Lower panels show γ-H2A.X signals only.
Mutations of ASXL1 are more frequent than EZH2 mutations and may cause a decrease in global H3K27me3 level and in the accumulation of this marker on nascent DNA. The H3K27me3 marker was not detected on Edu-labeled, nascent DNA of CD34+ […] cells carrying a frameshift ASXL1 mutation causing a premature termination (G646fs*12) in ˜50% of the cells, favoring a state of ‘open’ chromatin (FIGS. 13A and 13B).

[7] = tested on: H3K27me3 in AML primary cells; assay: H3K27me3 on nascent DNA of AML primary cells (CAA, western blot); assay type: cell-based, human; conditions: GSK126 for 12 hours
Method: (§3) FIGS. 4A-4B illustrate the ability of EZH2 inhibitor to affect H3K27me3 binding. […] Cells were labeled with EdU for 15 minutes. CAA was performed with H3K27me3 antibody. Following PLA, cells were immunostained for EdU.
(§4) Chromatin assembly assay: Cells were grown on chamber slides, pulse-labeled with 5 μM EdU and fixed at room temperature with 4% formaldehyde in PBS for 15 min, washed with PBS, and permeabilized with 0.3% Triton for 15 min. Cells were subjected to Click-iT reaction with biotin-azide for 30 min. The PLA reactions (Olink) between the anti-biotin antibody and antibodies to other proteins were performed as described by Olink. Following PLA, cells were immunostained with anti-biotin Alexa Fluor 488 antibody to control the specificity of CAA. The results of CAA experiments shown in FIG. 1A were quantified by counting the number of PLA signals per EdU-labeled nuclei in 50 cells of each of the three independent experiments. The nature of the results in the rest of the figures alleviated the need to quantify the results of these assays.
(§5) Since DNA-damaging agents (eg., Doxorubicin) preferentially induce double strand breaks (DSBs) in more de-condensed regions of chromatin, some epigenetic inhibitors may render leukemic cells more susceptible to DNA damage. […]

[8] = tested on: primary CD34+ AML samples; assay: Apoptosis by Caspase-3/7 activity (flow cytometry) in primary CD34+ AML samples; assay type: cell-based, human; conditions: CD34+ AML cells, co-treatment GSK-126 (0.5 μM) and Doxorubicin (0.1 μM), 48 hours
Method: as §2

THP-1 cells [9] = assay: ChIP-seq of γ-H2A.X in THP-1 cells; assay type: cell-based, human; conditions: THP-1 cells co-treated with GSK126
Text: (§6) Box plot of ChIP-seq read density is shown. FIG. 14B is an example showing the COL93A locus.
Without wishing to be bound by theory, a more relaxed chromatin structure may be more susceptible to DNA damage.

H3K27me3 in THP-1 cells = assay: H3K27me3 levels in THP-1 cells (CAA, western blot, ChIP-seq); assay type: cell-based, human
Method: as §3, §6, §4, §5

[10] = tested on: THP-1 and human CD34+ primary AML cells; assay: DNA content analysis and myeloid marker flow cytometry of AML cells; assay type: cell-based; conditions: GSK126 alone
[11] = tested on: primary blasts from AML patient #22324; assay: CAA (PLA) between EdU-labeled DNA and ATRIP at sites of DNA damage; assay type: cell-based, human; conditions: GSK343 12 hours, then 10 μM Bleomycin 1 hr
Method: Cells were labeled with EdU for 10 minutes and treated with 10 μM Bleomycin (Bleo) for 1 hr. CAA (PLA, dark) was performed between EdU and ATRIP protein. Chromatin assembly assay: Cells were grown on chamber slides, pulse-labeled with 5 μM EdU and fixed at room temperature with 4% formaldehyde in PBS for 15 min, washed with PBS, and permeabilized with 0.3% Triton for 15 min. Cells were subjected to Click-iT reaction with biotin-azide for 30 min. The PLA reactions (Olink) between the anti-biotin antibody and antibodies to other proteins were performed as described by Olink. Following PLA, cells were immunostained with anti-biotin Alexa Fluor 488 antibody to control the specificity of CAA. The results of CAA experiments shown in FIG. 1A were quantified by counting the number of PLA signals per EdU-labeled nuclei in 50 cells of each of the three independent experiments.

**Q.** Which “number of γ-H2A.X foci compared to untreated cells” value (THP-1 cells [1]; 24 hours) does the source give for `COc1cccc2c1C(=O)c1c(O)c3c(c(O)c1C2=O)C[C@@](O)(C(=O)CO)C[C@@H]3O[C@H]1C[C@H](N)[C@H](O)[C@H](C)O1` [Doxorubicin] here?
**A.** The value was “markedly increased”.

**Q.** With `Cc1cc(C)c(CNC(=O)c2cc(-c3ccc(CN4CCOCC4)cc3)cc3c2cnn3C2CCCC2)c(=O)[nH]1` [EPZ005687] as the compound, how does the “inhibition of the Y641 and A677 mutants of EZH2” value [2] read?
**A.** The value was “can also inhibit”.

**Q.** For `CC[C@H](C)n1cc(C)c2c(C(=O)NCc3c(C)cc(C)[nH]c3=O)cc(-c3ccc(N4CCNCC4)nc3)cc21` [GSK126], which “apoptosis (Caspase-3/7 activity)” value (THP-1 cells [3]; THP-1, co-treatment GSK-126 (0.5 μM) and Doxorubicin (0.1 μM), 48 hours) is on record?
**A.** Its value is “enhanced apoptosis”.

**Q.** What about the “DNA damage/apoptosis induced by treatment with Ara-C only” value (THP-1 cells [3]; THP-1 cells ex vivo, GSK126 with Ara-C) of the same compound?
**A.** Its value is “did not enhance”.

**Q.** What about the “DNA damage by comet assay” value (THP-1 cells [4]) of the same compound?
**A.** The value was “Increased DNA damage”.

**Q.** And the “number of RAD51 foci (DSBs repair) following Doxorubicin-induced DNA damage” value (THP-1 cells [5])?
**A.** The value was “not diminished”.

**Q.** And the “DNA damage (γ-H2A.X foci and comet assay)” value (primary CD34+ AML cells)?
**A.** Its value is “Higher levels of DNA damage”.

**Q.** What about the “Doxorubicin-induced DNA damage (γ-H2A.X foci)” value [6] of the same compound?
**A.** The value was “did not increase”.

**Q.** And the “chromatin conformation (H3K27me3 on nascent DNA, CAA)” value [7]?
**A.** Its value is “switching the chromatin conformation from “closed” to “open””.

**Q.** And the “apoptosis (Caspase-3/7 activity)” value [8]?
**A.** The value was “enhanced apoptosis”.

**Q.** What about the “Doxorubicin-induced γ-H2A.X signals (ChIP-seq)” value (THP-1 cells [9]) of the same compound?
**A.** Its value is “increased”.

**Q.** What about the “chromatin conformation (H3K27me3 on nascent DNA, CAA)” value (H3K27me3 in THP-1 cells; GSK126 for 12 hours) of the same compound?
**A.** Its value is “switching the chromatin conformation from “closed” to “open””.

**Q.** And the “global levels of H3K27me3 (ChIP-seq)” value (H3K27me3 in THP-1 cells; GSK126 for 24 hours)?
**A.** Its value is “marked decrease”.

**Q.** What about the “number and mean fluorescence intensity of γ-H2A.X foci and γ-H2A.X levels” value (THP-1 cells [1]; co-treatment of GSK126 (5 μM) with bleomycin, Doxorubicin or etoposide, 24 hours, vs cytotoxic agent alone) of the same compound?
**A.** The value was “further increased”.

**Q.** And the “proliferation of AML cells (DNA content analysis)” value ([10]; 48 hrs, THP-1 and CD34+ primary AML cells)?
**A.** The value was “no effect”.

**Q.** What about the “differentiation of AML cells (myeloid marker expression)” value ([10]; 5 days, AML #013 cells) of the same compound?
**A.** The value was “no effect”.

**Q.** For `CCCc1cc(C)[nH]c(=O)c1CNC(=O)c1cc(-c2ccnc(N3CCN(C)CC3)c2)cc2c1cnn2C(C)C` [GSK343], which “recruitment of ATRIP to sites of DNA damage induced by bleomycin” value [11] is on record?
**A.** Its value is “significantly increased recruitment of ATRIP”.

**Q.** With `CCOC(=O)CCNc1cc(N2CCc3ccccc3CC2)nc(-c2ccccn2)n1` [GSKJ4] as the compound, how does the “enhancement of Doxorubicin-induced DNA damage” value (THP-1 cells [1]; THP-1 cells treated with GSKJ4) read?
**A.** The value was “did not enhance”.

**Q.** Which “number of γ-H2A.X foci compared to untreated cells” value (THP-1 cells [1]; 24 hours) does the source give for `COc1cc([C@@H]2c3cc4c(cc3[C@@H](O[C@@H]3O[C@@H]5CO[C@@H](C)O[C@H]5[C@H](O)[C@H]3O)[C@H]3COC(=O)[C@H]23)OCO4)cc(OC)c1O` [etoposide] here?
**A.** Its value is “markedly increased”.

**Q.** Which “number of γ-H2A.X foci compared to untreated cells” value (THP-1 cells [1]; 24 hours) does the source give for bleomycin here?
**A.** Its value is “markedly increased”.
